For data set [1] the following is noted: cited from earlier work.
For data set [2], the system named is primary neuronal cells derived from Tg2576 mice. Put plainly: APP proteolysis (Aβ ELISA, IP, APP CTF Western blot) in Tg2576 mouse-derived primary neuronal cells. Type of data set: cell-based. To be noted: 12 hrs. On the procedure: Cultured cells or mouse brain were lysed in ice-cold lysis buffer described above, and an aliquot corresponding to 50 μg of total protein was electrophoretically separated using 12% Tris-HCl or 16.5% Tris-tricine gels. Electrophoresed proteins were then transferred to PVDF membranes, washed in dH2O, and blocked for 1 hr at ambient temperature in Tris-buffered saline (TBS; Bio-Rad) containing 5% (w/v) non-fat dry milk. After blocking, membranes were hybridized for 1 hr at ambient temperature with various primary antibodies. Membranes were then washed 3× for 5 min each in dH2O and incubated for 1 hr at ambient temperature with the appropriate HRP-conjugated secondary antibody (1:1,000). Antibodies were obtained against the amino-terminus and carboxyl-terminus of PS1 (Chemicon, Temecula, Calif.), amino-terminus and carboxyl-terminus of APP (22C11), actin (Roche, Basel, Switzerland), Aβ (6E10, 48G) (Signet Laboratories, Dedham, Mass.), phosphor-GSK3α (ser^21, clone BK202) (Upstate, Lake Placid, N.Y.), phospho-GSK3α/β (pTyr^279/216) (Sigma), phospho-GSK-3β (Ser^9) (Sigma) and total GSK-3α/β (Sigma). All antibodies were diluted in TBS containing 5% (w/v) of non-fat dry milk. […] Densitometric analysis was done as previously described using a FluorS Multiimager with Quantity One™ software (39). […] Antibodies used for Western blot included the APP-carboxyl-terminal antibody (1:50)), amino-terminal APP antibody (clone 22C11), or 6E10 (1:1,000), or actin antibody (1:1,500; as an internal reference control). γ-secretase activity was quantified in cell lysates using available kits based on secretase-specific peptides conjugated to fluorogenic reporter molecules.
SweAPP N2a cells and primary neuronal cells derived from Tg2576 mice were treated with varying doses of luteolin to examine luteolin's effect on APP proteolysis. Cellular extracts were collected and analyzed using immunoprecipitation (IP), Western blot, and ELISA. […] SweAPP N2a and primary Tg2576-derived neuronal cells CTF profiles were analyzed following luteolin treatment to determine at which level luteolin impacts amyloid processing.
In general terms: An ELISA detects its analyte on a solid surface through an enzyme-linked reagent.

For a further data set, the system named is PS1. Put plainly: Western blot of PS1 C-terminal fragment phosphorylation in SweAPP N2a cells. Type of data set: cell-based, murine. The procedure:
Cultured cells or mouse brain were lysed in ice-cold lysis buffer described above, and an aliquot corresponding to 50 μg of total protein was electrophoretically separated using 12% Tris-HCl or 16.5% Tris-tricine gels. Electrophoresed proteins were then transferred to PVDF membranes, washed in dH2O, and blocked for 1 hr at ambient temperature in Tris-buffered saline (TBS; Bio-Rad) containing 5% (w/v) non-fat dry milk. After blocking, membranes were hybridized for 1 hr at ambient temperature with various primary antibodies. Membranes were then washed 3× for 5 min each in dH2O and incubated for 1 hr at ambient temperature with the appropriate HRP-conjugated secondary antibody (1:1,000). All antibodies were diluted in TBS containing 5% (w/v) of non-fat dry milk. Blots were developed using the luminol reagent (Pierce Biotechnology). Densitometric analysis was done as previously described using a FluorS Multiimager with Quantity One™ software. Immunoprecipitation was performed for detection of sAPP-α, sAPP-β and Aβ by incubating 200 μg of total protein of each sample with various sequential combinations of 6E10 (1:100) and/or 22C11 (1:100) antibodies overnight with gentle rocking at 4° C., and 10 μL of 50% protein A-Sepharose beads were then added to the sample (1:10; Sigma) prior to gentle rocking for an additional 4 hrs at 4° C. Following washes with 1× cell lysis buffer, samples were subjected to Western blot as described above. Antibodies used for Western blot included the APP-carboxyl-terminal antibody (1:50)), amino-terminal APP antibody (clone 22C11), or 6E10 (1:1,000), or actin antibody (1:1,500; as an internal reference control). γ-secretase activity was quantified in cell lysates using available kits (R&D Systems, Minneapolis, Minn.), based on secretase-specific peptides conjugated to fluorogenic reporter molecules.
The two bands of highest molecular weight, approximately 20 kD and 18 kD in size, represent phosphorylated PS1 CTFs with a smaller 16 kD band representing the more common CTF product indicative of PS1 endoproteolytic cleavage.
To confirm that the 20 kD and 18 kD bands were phosphorylated PS1 isoforms, SweAPP N2a cells were treated with luteolin (20 μM) prior to lysis and cell lysates incubated with calf intestine alkaline phosphatase (CIAP) (Fermentas, Hanover, Md.), to dephosphorylate any potential phosphorylated proteins, to eliminate skewing of electrophorectic mobilities. Following 30 minutes of incubation, the 20 kD band is not evident in the CIAP treated lysates, seen in FIGS. 21(A) through 22, and the 18 kD band reduced while endogenous CTF, 16 kD, appears to accumulate. When compared to lysates incubated with only reaction buffer, phosphorylated residues decrease in a time dependent manner, shown by the 20 kD CTF:16 kD CTF. […] Luteolin affects PS1 phosphorylation and may indicate a means by which γ-secretase activity may be regulated.
To determine if this phenomenon was specifically attributable to luteolin treatment or more generally in regards to GSK-3 inhibition, SweAPP N2a cells were treated with a range of doses of the GSK-3 inhibitor SB-415286 (BIOMOL®, Plymouth Meeting, Pa.). […] FIG. 24(B). GSK-3α and β was successfully knocked-down (>70%, data not shown) with siRNA in SweAPP N2a cells, substantiating the role of GSK-3α in this luteolin-mediated PS1 processing. […]

With `O=c1cc(-c2ccc(O)c(O)c2)oc2cc(O)cc(O)c12` [luteolin], the half-life in plasma in data set [1] (in vivo) was less than 4 h. Besides, the oral bioavailability in data set [1] (oral) was less than 2%. Moreover, the “accumulation of both α and β CTFs (increase over control)” value in data set [2] (dose dependent, Western blot densitometry) is recorded as 2-3 fold. For the same compound, the “Aβ1-40, 42 peptide generation abrogated” value in data set [2] (luteolin 20 μM) was greater than 70%; in data set [2] (luteolin 40 μM) it was greater than 85%. Further, in the data set with PS1, the “PS1 CTF phosphorylation (phospho-PS1 CTF to PS1 CTF ratio)” value is listed as “PS1 CTF phosphorylation increases”. Further, the “full-length PS1 or PS1 NTF protein levels” value in the data set on PS1 (range of doses, 4 hrs) was “no significant effect”.

The values are drawn from patent publication US8802638B1, “Flavonoid treatment of glycogen synthase kinase-based disease” (University of South Florida, priority 2007, dated 2014).
